± gives the uncertainty stated by the source.
Assay: xn = mol fraction of the nth substance listed

CCNc1ccccc1 + Brc1ccccc1
viscosity [mPa·s], 101 kPa
Conditions	303.15 K	308.15 K
x1 = 0.0714	1.056 ± 0.012	0.995 ± 0.012
x1 = 0.1264	1.092 ± 0.012	1.023 ± 0.012
x1 = 0.1965	1.139 ± 0.013	1.06 ± 0.012
x1 = 0.2605	1.183 ± 0.013	1.095 ± 0.013
x1 = 0.3365	1.237 ± 0.013	1.137 ± 0.013
x1 = 0.3956	1.28 ± 0.013	1.171 ± 0.013
x1 = 0.4958	1.352 ± 0.014	1.229 ± 0.013
x1 = 0.5606	1.399 ± 0.014	1.268 ± 0.014
x1 = 0.6429	1.46 ± 0.014	1.319 ± 0.014
x1 = 0.7152	1.514 ± 0.015	1.364 ± 0.014
x1 = 0.7825	1.565 ± 0.015	1.407 ± 0.015
x1 = 0.8628	1.628 ± 0.015	1.46 ± 0.015
x1 = 0.9205	1.675 ± 0.016	1.499 ± 0.015

C1CCCCCC1 + C1CCCCC1
303.15 K, 101 kPa
Conditions	viscosity [mPa·s]
x2 = 0.1425	1.16 ± 0.0071
x2 = 0.2998	1.085 ± 0.0067
x2 = 0.4978	1.003 ± 0.0062
x2 = 0.6947	0.9296 ± 0.0058
x2 = 0.8482	0.8767 ± 0.0056

CC(=O)O + C1CCCCC1
303.15 K, 101 kPa
Conditions	viscosity [mPa·s]
x2 = 0.09517	0.8375 ± 0.0099
x2 = 0.1912	0.747 ± 0.0089
x2 = 0.2978	0.6933 ± 0.0083
x2 = 0.5005	0.6661 ± 0.008
x2 = 0.5952	0.6798 ± 0.0081
x2 = 0.6982	0.6567 ± 0.0079
x2 = 0.8007	0.6847 ± 0.0082
x2 = 0.9035	0.7306 ± 0.0087

CC(=O)O + C1CCOC1
298.15 K, 101 kPa
Conditions	viscosity [mPa·s]
x2 = 0.0847	1.112 ± 0.0094
x2 = 0.1723	1.087 ± 0.0092
x2 = 0.263	1.04 ± 0.0088
x2 = 0.357	0.9739 ± 0.0082
x2 = 0.4544	0.8952 ± 0.0076
x2 = 0.5554	0.8054 ± 0.0069
x2 = 0.6602	0.7083 ± 0.0061
x2 = 0.7691	0.6103 ± 0.0053
x2 = 0.8823	0.5294 ± 0.0046

ClCCCl + C1CCOC1
303.15 K, 101 kPa
Conditions	viscosity [mPa·s]
x2 = 0.0815	0.7038 ± 0.0058
x2 = 0.1436	0.6852 ± 0.0056
x2 = 0.2414	0.6571 ± 0.0054
x2 = 0.3055	0.6394 ± 0.0053
x2 = 0.4137	0.6105 ± 0.0051
x2 = 0.5015	0.5879 ± 0.0049
x2 = 0.6095	0.5606 ± 0.0047
x2 = 0.7289	0.5307 ± 0.0045
x2 = 0.8142	0.5097 ± 0.0044
x2 = 0.9176	0.485 ± 0.0042

ClCCl + C1CCOC1
298 K, 101 kPa
Conditions	viscosity [mPa·s]
x1 = 0.0981	0.455 ± 0.015
x1 = 0.2079	0.454 ± 0.015
x1 = 0.3064	0.453 ± 0.015
x1 = 0.3509	0.452 ± 0.015
x1 = 0.4032	0.451 ± 0.015
x1 = 0.4519	0.45 ± 0.015
x1 = 0.4994	0.449 ± 0.015
x1 = 0.5531	0.447 ± 0.015
x1 = 0.5994	0.445 ± 0.015
x1 = 0.6477	0.443 ± 0.015
x1 = 0.6696	0.441 ± 0.015
x1 = 0.7756	0.437 ± 0.015
x1 = 0.7999	0.435 ± 0.015
x1 = 0.9011	0.428 ± 0.015

ClCCCl + C1COCCO1
303.15 K, 101.33 kPa
Conditions	viscosity [mPa·s]
x2 = 0.0462	0.7468 ± 0.0055
x2 = 0.1984	0.7909 ± 0.0058
x2 = 0.2786	0.8101 ± 0.0059
x2 = 0.3663	0.8307 ± 0.006
x2 = 0.4515	0.8512 ± 0.0062
x2 = 0.567	0.8832 ± 0.0064
x2 = 0.6362	0.9068 ± 0.0066
x2 = 0.7673	0.9595 ± 0.0069
x2 = 0.8428	0.996 ± 0.0072
x2 = 0.9185	1.037 ± 0.0075

ClCCl + C1COCCO1
viscosity [mPa·s], 101 kPa
Conditions	x1 = 0.117	x1 = 0.1716	x1 = 0.2883	x1 = 0.4089	x1 = 0.4973	x1 = 0.5905	x1 = 0.7057	x1 = 0.7928	x1 = 0.902
293.15 K	1.112 ± 0.011	1.045 ± 0.01	0.946 ± 0.009	0.841 ± 0.008	0.76 ± 0.008	0.691 ± 0.007	0.612 ± 0.006	0.553 ± 0.006	0.485 ± 0.005
298.15 K	1.027 ± 0.01	0.97 ± 0.01	0.882 ± 0.009	0.786 ± 0.008	0.713 ± 0.007	0.654 ± 0.007	0.579 ± 0.006	0.525 ± 0.005	0.46 ± 0.005

CC(=O)O + CC#N
viscosity [mPa·s], 101 kPa
Conditions	x1 = 0.0924	x1 = 0.1864	x1 = 0.282	x1 = 0.3793	x1 = 0.4782	x1 = 0.5789	x1 = 0.6814	x1 = 0.7857	x1 = 0.8919
298.15 K	0.3742 ± 0.022	0.4162 ± 0.023	0.4785 ± 0.024	0.558 ± 0.025	0.6509 ± 0.026	0.7533 ± 0.028	0.8608 ± 0.03	0.9682 ± 0.032	1.07 ± 0.034
308.15 K	0.3267 ± 0.022	0.3622 ± 0.022	0.4177 ± 0.023	0.4891 ± 0.024	0.5719 ± 0.025	0.6612 ± 0.026	0.7513 ± 0.028	0.8362 ± 0.029	0.9088 ± 0.031
318.15 K	0.2808 ± 0.021	0.3168 ± 0.022	0.3759 ± 0.022	0.4515 ± 0.023	0.5363 ± 0.024	0.6224 ± 0.026	0.7005 ± 0.027	0.7609 ± 0.028	0.7925 ± 0.029

ClCCCl + CC#N
101.33 kPa
Conditions	viscosity [mPa·s]
298 K, x2 = 0.0717	0.754 ± 0.01
298 K, x2 = 0.1909	0.698 ± 0.01
298 K, x2 = 0.2938	0.65 ± 0.009
298 K, x2 = 0.3884	0.607 ± 0.009
298 K, x2 = 0.4948	0.558 ± 0.008
298 K, x2 = 0.5896	0.515 ± 0.008
298 K, x2 = 0.6957	0.468 ± 0.008
298 K, x2 = 0.7981	0.425 ± 0.007
298 K, x2 = 0.8955	0.385 ± 0.007
303.15 K, x2 = 0.113	0.674 ± 0.0084
303.15 K, x2 = 0.1744	0.6458 ± 0.0082
303.15 K, x2 = 0.2643	0.6069 ± 0.0079
303.15 K, x2 = 0.3563	0.5679 ± 0.0075
303.15 K, x2 = 0.4072	0.5471 ± 0.0074
303.15 K, x2 = 0.543	0.4921 ± 0.0069
303.15 K, x2 = 0.6825	0.4372 ± 0.0065
303.15 K, x2 = 0.8073	0.3903 ± 0.0061
303.15 K, x2 = 0.8792	0.3647 ± 0.0059
303.15 K, x2 = 0.9181	0.3513 ± 0.0058

CCNc1ccccc1 + CC(=O)c1ccccc1
303.15 K, 100 kPa
Conditions	viscosity [mPa·s]
x1 = 0.0651	1.524 ± 0.02
x1 = 0.1424	1.538 ± 0.02
x1 = 0.2225	1.554 ± 0.02
x1 = 0.2977	1.568 ± 0.02
x1 = 0.3611	1.581 ± 0.021
x1 = 0.4487	1.599 ± 0.021
x1 = 0.5162	1.614 ± 0.021
x1 = 0.5869	1.631 ± 0.021
x1 = 0.6407	1.644 ± 0.021
x1 = 0.7083	1.662 ± 0.021
x1 = 0.7798	1.681 ± 0.022
x1 = 0.8256	1.694 ± 0.022
x1 = 0.9025	1.715 ± 0.022

ClCCl + CC(=O)c1ccccc1
298.15 K, 101 kPa
Conditions	viscosity [mPa·s]
x2 = 0.0728	0.5046 ± 0.028
x2 = 0.1501	0.5598 ± 0.031
x2 = 0.2324	0.6209 ± 0.033
x2 = 0.3201	0.6967 ± 0.037
x2 = 0.4139	0.7804 ± 0.04
x2 = 0.5144	0.8931 ± 0.045
x2 = 0.6224	1.036 ± 0.052
x2 = 0.7386	1.212 ± 0.059
x2 = 0.8641	1.422 ± 0.069

CCC(C)Br (centres undefined) + CC(C)(C)O
viscosity [mPa·s], 101.3 kPa
Conditions	x1 = 0.05	x1 = 0.102	x1 = 0.2043	x1 = 0.3044	x1 = 0.4041	x1 = 0.5032	x1 = 0.6203	x1 = 0.7036	x1 = 0.8056	x1 = 0.9064
298.15 K	3.175 ± 0.028	2.363 ± 0.022	1.519 ± 0.013	1.152 ± 0.0095	0.9576 ± 0.0077	0.8183 ± 0.0066	0.7087 ± 0.0058	0.6532 ± 0.0054	0.6048 ± 0.0051	0.5718 ± 0.0049
313.15 K	1.651 ± 0.023	1.36 ± 0.016	0.9969 ± 0.0092	0.8102 ± 0.0071	0.7146 ± 0.0062	0.6337 ± 0.0054	0.5665 ± 0.0048	0.5317 ± 0.0046	0.4987 ± 0.0044	0.4777 ± 0.0042

CCNc1ccccc1 + CC(C)(C)O
viscosity [mPa·s], 101 kPa
Conditions	303.15 K	308.15 K
x1 = 0.0789	3.287 ± 0.037	2.6 ± 0.034
x1 = 0.1325	3.222 ± 0.036	2.566 ± 0.033
x1 = 0.1974	3.139 ± 0.034	2.522 ± 0.032
x1 = 0.2562	3.061 ± 0.033	2.478 ± 0.03
x1 = 0.3315	2.957 ± 0.031	2.414 ± 0.029
x1 = 0.4056	2.848 ± 0.03	2.343 ± 0.027
x1 = 0.4868	2.717 ± 0.028	2.256 ± 0.025
x1 = 0.5626	2.59 ± 0.026	2.167 ± 0.024
x1 = 0.6195	2.488 ± 0.025	2.096 ± 0.023
x1 = 0.6889	2.359 ± 0.023	2.003 ± 0.021
x1 = 0.7514	2.241 ± 0.022	1.916 ± 0.02
x1 = 0.8214	2.102 ± 0.02	1.815 ± 0.018
x1 = 0.8914	1.96 ± 0.018	1.71 ± 0.017
